# Assay results as given in US20080214398A1, “Herbicidal activities of combinations of sodium azide with sulfur containing and other deactivating compounds” (priority 2005, published 2008).
# “Also recorded” adds a separate entry of the source. Where two headings read alike, the source gives them in different places.
# Tests used:
# morningglory [1] = experiment: Example 2 greenhouse pot experiment, fixed Vapam HL rate with SEP 100 rates; type: in vivo, Ipomoea spp.; conditions: Vapam HL 60 gal/A on soil treated with SEP 100 40-120 lbs a.i./A
# Description: The effects on herbicidal activity of combinations of SEP 100 (Na azide) with metam Na, Na thiosulfate, methyl disulfide and the herbicide EPTC (Eptam 7E, Eradicane 6.7E) were studied in greenhouse experiments. In a first experiment SEP 100 was applied by drenching (1″ acre water) at 150 lbs a.i./A to pots (4 inch diam; PVC) containing each 2.2 pounds of silt loam (pH 6.2; org. matter <1.0%) from a cotton field. Immediately after treatment each pot was covered with a clear polyethylene bag (1.5 mil). […] The number of plants in each pot was determined at 10, 13, and 26 days after application of SEP 100. Momingglory plant tops were collected from each pot 33 days after initiation of the experiment and their fresh weight was determined.
# A second experiment explored the interaction between a fixed rate of Vapam HL (60 gal/A) and applications of SEP 100 in the 40-120 lbs a.i./A range. The methods and procedure followed were as for the first experiment except that weed counts were taken at 13 and 17 days after application and plant top weights were determined 32 days after initiation of the experiment.
# [2] = test system: Morningglory (Ipomoea spp.); type: in vivo
# Description: Compounds: Sodium azide, metam sodium (Vapam HL), EPTC, sodium thiosulfate, and methyl disulfide were delivered in aqueous solutions or emulsions (5% of SEP 100 for sodium azide; 5% for Vapam; 0.25% for EPTC, 2.5% for sodium thiosulfate; 2.5% for methyl disulfide) prepared immediately before use by diluting in demineralized water while stirring with a magnetic stirrer.
# Sources: SEP 100 from American Pacific Corp., metam sodium as Vapam HL (32, 7% a.i.) from AMVAC, EPTC from Gowen, sodium thiosulfate and methyl disulfide from Aldrich.
# Rates: Metam sodium at 163.5 mgs a.i./kg soil-equivalent to 0, and 327 lbs a.i./acre (120 gal Vapam HL/A). Sodium azide at 75 mgs a.i./kg soil equivalent to 150 lbs a.i./A, sodium thiosulfate at 200 and 300 lbs/A; EPTC at 8 and 10 lbs/A, and methyl disulfide at 300 lbs/A.
# All different possible combinations of sodium azide with the other deactivating compounds and their corresponding rates were included in the experiment together with the appropriate controls.
# Application Method and Procedure: Each treatment was delivered by drenching in 100 mls aqueous volume onto the soil surface in pots (10-cm diam; PVC) containing 1 kg soil. The soil was from a cotton field (silt loam; pH 6.2; CEC<10 meq/100 gm soil; org. matter <1.0%). Sodium azide was applied on day one, and the other compounds four days later. Immediately after treatment the pots were covered by a thick (1.5 mil) clear low density polyethylene bag held tight against the outer wall of the pot by a rubber band. Three days after application of “deactivator compounds” the bags were removed and the pots were planted with morningglory seed (25 seed/pot). Counts were taken from each pot (experimental unit) at 10, 13, and 26 days after application of sodium azide. Morningglory plant tops were collected from each pot 33 days after initiation of the experiment and fresh weights were determined.
# Major Pests: Morningglory (Ipomoea spp.)
# Experimental Design: Randomized complete block with seven replications/treatment.
# Statistical Analyses: Anova and Fischer's least significant difference (flsd) at p 0.05. Regression analyses.
# morningglory [3] = test system: morningglory
# Description: Compounds: sodium azide and metam sodium (Vapam HL) were delivered in aqueous solutions (1.0% of SEP 100 for sodium azide; 5% for Vapam) prepared immediately before use by diluting in demineralized water while stirring with a magnetic stirrer.
# Source: SEP 100 from American Pacific Corp., and metam sodium as Vapam HL (32, 7% a.i.) from AMVAC.
# Rates: Metam sodium at 0, and 82 mgs a.i./kg soil-equivalent to 0, and 60 gal/A. Sodium azide at 0, 20, 40 and 60 mgs a.i./kg soil equivalent to 0, 40, 80, and 120 lbs a.i./A, respectively. Each metam sodium rate was applied to soil in combination with each sodium azide dose.
# [4] = test system: annual morningglory (Ipomoea spp.); type: in vivo
# Description: The effects on herbicidal activity of combinations of SEP 100 (Na azide) with metam Na, Na thiosulfate, methyl disulfide and the herbicide EPTC (Eptam 7E, Eradicane 6.7E) were studied in greenhouse experiments. In a first experiment SEP 100 was applied by drenching (1″ acre water) at 150 lbs a.i./A to pots (4 inch diam; PVC) containing each 2.2 pounds of silt loam (pH 6.2; org. matter <1.0%) from a cotton field. Immediately after treatment each pot was covered with a clear polyethylene bag (1.5 mil). The bags were removed 4 days after, and additional applications were drenched in with: Vapam HL, at 120 gal/A; EPTC at 8 and 10 lbs ai/A; Na thiosulfate at 200 and 300 lbs ai/A; and methyl disulfide at 300 lbs ai/A. Pots were again covered with the bags for 3 days after which they were removed and pots planted with annual morningglory (Ipomoea spp.; 25 seed/pot). Some pots received only SEP 100 and others received water only. Each treatment was represented by 7 pots (experimental units) arranged in a randomized complete block design on a bench. The number of plants in each pot was determined at 10, 13, and 26 days after application of SEP 100. Momingglory plant tops were collected from each pot 33 days after initiation of the experiment and their fresh weight was determined.
# warm season turf species = conditions: cited from earlier work
# [5] = applied 4 days after sodium azide 150 lbs a.i./A, metam sodium 327 lbs a.i./acre, sodium thiosulfate 200 and 300 lbs/A, methyl disulfide 300 lbs/A, 10, 13, 26 days
compound,measurement,setting,value
"CNC(=S)S [metam sodium, sodium methyl dithiocarbamate]",effect on morningglory top weights (FIG. 2B),morningglory [1]; 32 days,diminished herbicidal activity of sodium azide
same,"effect on herbicidal activity of Na azide (number of morningglory plants, FIG. 2A)",morningglory [1]; counts at 13 and 17 days,diminishes the herbicidal activity of sodium azide
same,"effect on herbicidal activity of sodium azide (number of morningglory plants per pot, FIGS. 3A-3C)",[2]; [5],significantly reduced the herbicidal activity of sodium azide; also recorded: nullified the herbicidal activity of sodium azide
same,morningglory growth / top weights (FIG. 3D),"[2]; sodium azide 150 lbs a.i./A, then metam sodium 327 lbs a.i./acre, 33 days",synergistic beneficial effects
same,effect on morningglory top weights,morningglory [3]; metam sodium 60 gal/A on soil previously treated with sodium azide,synergistic beneficial effects
same,"effect on herbicidal activity of sodium azide (number of morningglory plants per pot, FIGS. 4A-4C)","morningglory [3]; metam sodium 60 gal/A with sodium azide 0, 40, 80, 120 lbs a.i./A, 13, 17, 30 days",nullified the herbicidal activity of sodium azide
"CCCN(CCC)C(=O)SCC [EPTC, S-ethyl dipropylthiocarbamate]",herbicidal activity against morningglory,"[4]; EPTC 8 and 10 lbs ai/A, SEP 100 150 lbs a.i./A",strongly herbicidal
same,herbicidal activity against morningglory,"[2]; EPTC 8 and 10 lbs/A, sodium azide 150 lbs a.i./A",strongly herbicidal
CSSC [methyl disulfide],"effect on herbicidal activity of Na azide (number of morningglory plants, FIG. 1A)","[4]; applied 4 days after SEP 100 150 lbs a.i./A, Vapam HL 120 gal/A, Na thiosulfate 200 and 300 lbs ai/A, methyl disulfide 300 lbs ai/A, counts at 10, 13, 26 days",little effect
same,"effect on herbicidal activity of sodium azide (number of morningglory plants per pot, FIGS. 3A-3C)",[2]; [5],inconclusive
[N-]=[N+]=[N-] [sodium azide],plant back interval required for successful establishment,warm season turf species,3-4 weeks
O=S([O-])([O-])=S.[Na+].[Na+] [sodium thiosulfate],"effect on herbicidal activity of Na azide (number of morningglory plants, FIG. 1A)",[4]; in vivo,little effect
same,"effect on herbicidal activity of sodium azide (number of morningglory plants per pot, FIGS. 3A-3C)",[2]; in vivo,inconclusive
